Source: patent publication US11261170B2, “Aromatic compound, pharmaceutical composition and use thereof” (Sichuan Kelun-Biotech Biopharmaceutical Co., Ltd., priority 2017, dated 2022)
Marks after values point to notes of the source that are not given here.

Columns and labels:
PPARα [1] = molecular target: T1, PPARα (Homo sapiens (Human), UniProt Q07869); experiment: Activation of transient transfected PPAR α in HEK293 cells (GAL4-hPPAR α luciferase assay); type: cell-based; conditions: HEK293 transfected with GAL4-hPPAR α, 24 h incubation
Method: Test example 1: Experiment of the compounds on activation of transient transfected PPAR α in HEK293 cells
Plasmid: pcDNA3.1(+)-GAL4-hPPAR α, customized by Nanjing Kebai Biotechnology Co., Ltd.
(§1) Liposome: PGL4.35, customized by Nanjing Kebai Biotechnology Co., Ltd.
(§2) Cell: human embryonic kidney cells HEK293, purchased from ATCC.
(§3) Transfection reagent: Lipofectamine Reagent 3000 purchased from Invitrogen.
(§4) Assay kit: Bright Glo™ Luciferase Assay System purchased from Promega.
(§5) HEK293 cells were incubated in DMEM medium containing 10% of fetal bovine serum at 37° C. in the presence of 5% of CO2. 3×10^5/ml cells were plated in each well of the 6-well plate. When the cell convergence degree reached 50%-80%, 5 μg of liposome PGL4.35 and 5 μg of expression plasmid pcDNA3.1(+)-GAL4-hPPAR α were added to transfect the cells for 24 h and then the cells were collected. The transfected cells were plated in the 96-well plate and the compounds of the application in different concentrations were added, incubated for 24 h, and Bright Glo™ Luciferase Assay System reagent was added for luciferase assay.
Target sequence in this assay (Q07869 whole entry, looked up, the tested form may be a part): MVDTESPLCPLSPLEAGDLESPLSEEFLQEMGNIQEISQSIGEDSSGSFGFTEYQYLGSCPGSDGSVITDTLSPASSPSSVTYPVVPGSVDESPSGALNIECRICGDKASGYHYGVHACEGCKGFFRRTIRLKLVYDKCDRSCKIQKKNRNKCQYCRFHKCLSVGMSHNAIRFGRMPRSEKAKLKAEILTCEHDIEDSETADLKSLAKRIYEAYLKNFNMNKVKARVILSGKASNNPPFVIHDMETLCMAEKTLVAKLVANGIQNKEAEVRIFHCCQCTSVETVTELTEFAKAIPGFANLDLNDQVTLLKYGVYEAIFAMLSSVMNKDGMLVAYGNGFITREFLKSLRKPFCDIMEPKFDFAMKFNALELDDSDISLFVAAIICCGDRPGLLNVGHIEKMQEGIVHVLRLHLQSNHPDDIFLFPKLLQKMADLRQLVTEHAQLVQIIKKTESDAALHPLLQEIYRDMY

PPARδ [2] = molecular target: T2, PPARδ (Homo sapiens (Human), UniProt Q03181); experiment: Activation of transient transfected PPAR δ in HEK293 cells (GAL4-hPPAR δ luciferase assay); type: cell-based; conditions: HEK293 transfected with GAL4-hPPAR δ, 24 h incubation
Method: Test Example 2: Experiment of the Compounds on Activation of Transient Transfected PPAR δ in HEK293 Cells
Plasmid: pcDNA3.1(+)-GAL4-hPPAR δ, customized by Nanjing Kebai Biotechnology Co., Ltd.
as §1, §2, §3, §4
as §5, with “δ” for “α”, “Then, the” for “The”, “reagent” for “reagent was added”, “assay was added.” for “assay.”
Target sequence in this assay (Q03181 whole entry, looked up, the tested form may be a part): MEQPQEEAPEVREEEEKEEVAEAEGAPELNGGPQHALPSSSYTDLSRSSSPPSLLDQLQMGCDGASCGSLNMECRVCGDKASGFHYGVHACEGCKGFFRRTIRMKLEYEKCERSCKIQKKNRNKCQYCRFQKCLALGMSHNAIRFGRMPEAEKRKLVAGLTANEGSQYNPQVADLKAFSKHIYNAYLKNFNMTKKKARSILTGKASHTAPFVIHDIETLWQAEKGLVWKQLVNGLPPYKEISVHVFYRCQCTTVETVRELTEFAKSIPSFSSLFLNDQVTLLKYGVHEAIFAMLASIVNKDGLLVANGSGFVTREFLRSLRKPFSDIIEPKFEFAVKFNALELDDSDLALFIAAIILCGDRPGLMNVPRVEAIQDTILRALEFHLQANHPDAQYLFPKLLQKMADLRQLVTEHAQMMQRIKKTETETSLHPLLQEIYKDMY

PPARα [3] = molecular target: T1, PPARα; experiment: Activation of PPARα in genetically engineered CHO-K1 cells (PathHunter); type: cell-based; conditions: PathHunter CHO-K1 PPARα cell line, agonist format, 6 hours
Description: (§6) Test Example 3: Experiment of Compounds on Activation of PPAR α, δ and γ in Genetically Engineered CHO-K1 Cells
(§7) Cell: PathHunter® CHO-K1 PPARα Protein Interaction Cell Line, PathHunter® CHO-K1 PPARδ Protein Interaction Cell Line and PathHunter® CHO-K1 PPARγ Protein Interaction Cell Line, provided by DiscoverX®.
(§8) Assay kit: PathHunter® Detection Kit, provided by DiscoverX®.
(§9) 1) Cell Handling: PathHunter NHR (nuclear hormone receptor, PPARα, δ, γ) cell lines were expanded from freezer stocks according to standard procedures. Cells were seeded in a total volume of 20 μL into white walled, 384-well microplates and incubated at 37° C., 5% CO2 for the appropriate time prior to testing. […]
(§10) 3) Signal detection: Assay signal was generated through a single addition of 12.5 or 15 μL (50% v/v) of PathHunter Detection reagent cocktail, followed by one-hour-incubation at room temperature. Microplates were read following signal generation with a PerkinElmer Envision™ instrument for chemiluminescent signal detection.
(§11) 4) Data analysis: Both compound activity and EC50S were analyzed using CBIS data analysis suite (ChemInnovation, CA). For agonist mode assays, percentage activity was calculated using the following formula: % Activity=100%×(mean RLU of test sample−mean RLU of vehicle control)/(mean MAX control ligand−mean RLU of vehicle control).
Target sequence in this assay (Q07869 whole entry, the tested form may be a part): as the sequence (Q07869 whole entry, looked up, the tested form may be a part) above

PPARδ [4] = molecular target: T2, PPARδ; experiment: Activation of PPARδ in genetically engineered CHO-K1 cells (PathHunter); type: cell-based; conditions: PathHunter CHO-K1 PPARδ cell line, agonist format, 6 hours
Description: as §6, §7, §8, §9, §10, §11
Target sequence in this assay (Q03181 whole entry, the tested form may be a part): as the sequence (Q03181 whole entry, looked up, the tested form may be a part) above

PPARγ = PPARγ (Homo sapiens (Human), UniProt P37231); experiment: Activation of PPARγ in genetically engineered CHO-K1 cells (PathHunter); type: cell-based; conditions: PathHunter CHO-K1 PPARγ cell line, agonist format, 6 hours
Sequence of PPARγ (P37231 whole entry): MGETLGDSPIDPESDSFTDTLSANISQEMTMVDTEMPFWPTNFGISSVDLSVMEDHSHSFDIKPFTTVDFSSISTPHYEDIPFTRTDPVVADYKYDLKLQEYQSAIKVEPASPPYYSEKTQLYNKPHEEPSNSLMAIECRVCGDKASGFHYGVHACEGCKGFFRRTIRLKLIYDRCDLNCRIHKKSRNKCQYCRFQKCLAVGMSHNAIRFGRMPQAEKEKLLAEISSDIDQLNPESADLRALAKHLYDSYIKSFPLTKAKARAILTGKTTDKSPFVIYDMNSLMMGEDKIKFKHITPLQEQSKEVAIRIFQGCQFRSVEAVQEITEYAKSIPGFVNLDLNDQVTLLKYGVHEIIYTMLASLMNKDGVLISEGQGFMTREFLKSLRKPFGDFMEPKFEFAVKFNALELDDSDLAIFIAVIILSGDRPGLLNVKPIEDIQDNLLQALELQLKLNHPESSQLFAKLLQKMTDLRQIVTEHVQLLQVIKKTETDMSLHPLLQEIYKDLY
Description: as §6, §7, §8, §9, §10, §11

[5] = Cytotoxicity test on HepG2 cells (CellTiter Glo); type: cell-based; conditions: human, incubated for 3 days
Method: (§12) Test Example 4: Cytotoxicity Test of Compound on HepG2 & Hek293 Cells
(§13) Cells: human hepatocyte HepG2, purchased from ATCC; Human embryonic kidney cells HEK293: purchased from ATCC;
(§14) Assay reagent: CellTiter Glo® Luminescent Cell Viability Assay, purchased from Promega.
(§15) HepG2 and HEK293 cells were incubated in DMEM/F12 medium containing 10% of fetal bovine serum respectively. A proper amount of cells were plated into a 96-well plate, the plate was placed in an incubator overnight, and the culture medium was removed, and replaced with a complete culture medium containing the compound of the application, and incubated for 3 days. On day 4, an assay reagent CellTiter Glo was added to each well, and the relative luminous unit (RLU) of each well was determined by chemiluminescence. CC50 values of the compound of the application to HepG2 and HEK293 cells were calculated by GraphPad software, and the results were shown in Table 3.

[6] = Cytotoxicity test on HEK293 cells (CellTiter Glo); type: cell-based; conditions: human, incubated for 3 days
Method: as §12, §13, §14, §15

[7] = molecular target: hERG potassium ion channel (Homo sapiens (Human), UniProt Q12809); experiment: Predictor hERG fluorescence polarization; type: binding
Sequence of hERG potassium ion channel (Q12809 whole entry): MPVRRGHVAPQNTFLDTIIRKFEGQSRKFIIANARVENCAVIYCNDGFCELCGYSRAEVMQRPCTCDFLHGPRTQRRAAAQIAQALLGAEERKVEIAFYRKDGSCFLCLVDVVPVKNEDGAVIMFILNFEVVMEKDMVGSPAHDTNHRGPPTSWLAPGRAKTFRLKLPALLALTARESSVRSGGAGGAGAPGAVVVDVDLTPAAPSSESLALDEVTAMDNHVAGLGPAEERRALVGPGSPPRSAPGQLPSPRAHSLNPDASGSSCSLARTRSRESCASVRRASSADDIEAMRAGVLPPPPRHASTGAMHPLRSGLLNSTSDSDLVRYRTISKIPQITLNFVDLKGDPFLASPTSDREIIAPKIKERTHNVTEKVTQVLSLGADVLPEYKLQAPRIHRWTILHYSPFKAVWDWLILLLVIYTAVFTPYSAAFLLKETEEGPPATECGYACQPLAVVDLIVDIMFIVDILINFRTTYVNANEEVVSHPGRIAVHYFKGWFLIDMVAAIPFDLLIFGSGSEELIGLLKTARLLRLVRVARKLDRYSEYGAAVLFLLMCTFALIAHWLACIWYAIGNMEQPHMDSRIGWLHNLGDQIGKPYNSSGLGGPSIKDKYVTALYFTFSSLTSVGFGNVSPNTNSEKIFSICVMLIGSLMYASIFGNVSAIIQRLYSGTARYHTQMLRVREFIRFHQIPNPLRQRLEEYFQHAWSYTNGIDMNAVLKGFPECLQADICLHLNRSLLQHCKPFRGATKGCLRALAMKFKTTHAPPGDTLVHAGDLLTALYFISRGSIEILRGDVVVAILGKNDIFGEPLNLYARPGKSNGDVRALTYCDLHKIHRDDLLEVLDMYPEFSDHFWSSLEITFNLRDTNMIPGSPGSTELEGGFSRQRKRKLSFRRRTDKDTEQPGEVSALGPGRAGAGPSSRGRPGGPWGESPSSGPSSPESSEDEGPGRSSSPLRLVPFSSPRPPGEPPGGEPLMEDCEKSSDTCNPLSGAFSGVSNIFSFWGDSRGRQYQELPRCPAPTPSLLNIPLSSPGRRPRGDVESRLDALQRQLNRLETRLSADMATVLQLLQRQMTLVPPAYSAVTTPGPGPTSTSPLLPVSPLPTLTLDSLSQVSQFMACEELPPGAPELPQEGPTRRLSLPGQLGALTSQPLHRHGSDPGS
Method: Test Example 5: In Vitro Safety Test
The effect of the compound on hERG potassium ion channel was tested by Predictor™ hERG fluorescence polarization.

[8] = tested on: MCD model of non-alcoholic steatohepatitis; experiment: In vivo efficacy study in the MCD model of non-alcoholic steatohepatitis; design: species or system C57 Mice; conditions: MCD diet mice
Method: Test Example 6: In Vivo Efficacy Study of Compound in the MCD Model of Non-Alcoholic Steatohepatitis In this example, comparative test between compound GFT505 from WO2018133705A1 and compounds of the invention was conducted, so as to show the advantages of compounds of the invention. C57 Mice at 8-10 weeks of age (purchased from Vital River Laboratories) were body-weight matched and randomly divided into groups of normal, model, control and test. Mice in normal group were fed with standard chow for 9 weeks. Mice in model group, control group and test group were fed with MCD diet (Methionine-Choline Deficient Diet, Research Diets) for 9 weeks to induce NASH Model. During weeks 5-9 of the 9-week course of MCD diet, the control group and the test group were treated with GFT505 and TM4 of the invention, respectively, and the normal group and model group were treated with 0.5% MC. The dosage regimen was specified in table 5. [table] Animals were dissected after administration on day 35, livers were collected for H&E staining (hematoxylin-eosin staining) and sirius red staining. And then NAFLD activity score, including liver steatosis score, inflammation score and ballooning score, and liver fibrosis score were conducted.

[9] = 1 mg/kg intragastric once every day for 35 days
[10] = 1 mg/kg, 35 days, result in words

SMILES	EC50 (PPARα [1])	EC50 (PPARδ [2])	EC50 (PPARα [3])	EC50 (PPARδ [4])	EC50 (PPARγ)	CC50 at 3 days [5]	CC50 at 3 days [6]	IC50 [7]	Liver fibrosis score (Mean ± SD) [8, 9]	NAFLD activity score (Mean ± SD) [8, 9]	Reduction of NAFLD activity score compared with model group [8, 10]	Reduction of liver fibrosis score compared with model group [8, 10]
COc1nc2ccccc2cc1C(=O)/C=C/c1cc(C)c(OC(C)(C)C(=O)O)c(C)c1 [Example 5, (E)-2-(4-(3-(2-methoxyquinolin-3-yl)-3-oxo-1-propen-1-yl)-2,6-dimethylphenoxy)-2-met hylpropionic acid]	28.3 nM	556 nM	23 nM	797 nM	174 nM	13000 nM	7130 nM	> 10000 nM	0.88 ± 0.35^b	3.00 ± 0.93^b	significant reduction	significant reduction
COc1nc2ccccc2cc1C(=O)CCc1cc(C)c(OC(C)(C)C(=O)O)c(C)c1 [TM42, 2-(4-(3-(2-methoxyquinolin-3-yl)-3-oxopropyl)-2,6-dimethylphenoxy)-2-methylpropanoic acid]			63 nM	496 nM	1950 nM							
